ChEMBL document CHEMBL4610120, “New Broad-Spectrum Antibiotics Containing a Pyrrolobenzodiazepine Ring with Activity against Multidrug-Resistant Gram-Negative Bacteria” (J Med Chem, 2020)
In brackets after ≈: the same amount, converted by molar mass.

Tested on: not listed separately
Assay: Selectivity ratio of cytotoxicity against human WI38 cells to MIC for Pseudomonas aeruginosa PAO1
Type: toxicity, cell-based
Details: not given

Structure (SMILES)	selectivity ratio
COc1cc2c(cc1OCCCC(=O)Nc1cc(C(=O)Nc3ccc(-c4cc(C(=O)N5CCCCC5)n(C)c4)cc3)n(C)c1)N=C[C@@H]1CCCN1C2=O	10

Tested on: Klebsiella pneumoniae
Assay: Antimicrobial activity against Klebsiella pneumoniae M6 by microdilution broth method
Type: functional
Details: not given

Structure (SMILES)	MIC [µg/mL]
COc1cc2c(cc1OCCCC(=O)Nc1cc(C(=O)Nc3ccc(-c4cc(C(=O)N5CCCCC5)n(C)c4)cc3)n(C)c1)N=C[C@@H]1CCCN1C2=O	16 (≈ 22.2 µM)

Tested on: Enterococcus faecalis
Assay: Antibacterial activity against vancomycin sensitive Enterococcus faecalis NCTC 775 by microdilution broth method
Type: functional
Details: not given

Structure (SMILES)	MIC [µg/mL]
COc1cc2c(cc1OCCCC(=O)Nc1cc(C(=O)Nc3ccc(-c4cc(C(=O)N5CCCCC5)n(C)c4)cc3)n(C)c1)N=C[C@@H]1CCCN1C2=O	0.125 (≈ 0.174 µM)

Tested on: Enterococcus faecium
Assay: Antibacterial activity against vancomycin resistant Enterococcus faecium NCTC 12204 by microdilution broth method
Type: functional
Details: not given

Structure (SMILES)	MIC [µg/mL]
COc1cc2c(cc1OCCCC(=O)Nc1cc(C(=O)Nc3ccc(-c4cc(C(=O)N5CCCCC5)n(C)c4)cc3)n(C)c1)N=C[C@@H]1CCCN1C2=O	≤ 0.03

Tested on: Staphylococcus aureus
Assay: Antibacterial activity against methicillin resistant Staphylococcus aureus NCTC 13616 by microdilution broth method
Type: functional
Details: not given

Structure (SMILES)	MIC [µg/mL]
COc1cc2c(cc1OCCCC(=O)Nc1cc(C(=O)Nc3ccc(-c4cc(C(=O)N5CCCCC5)n(C)c4)cc3)n(C)c1)N=C[C@@H]1CCCN1C2=O	0.06 (≈ 0.0834 µM)

Tested on: DNA
Assay: Stabilization of 5'-FAM-TAT-ATA-TAG-ATA-TTT-TTT-TAT-CTA-TAT-ATA-3'-TAMRA DNA (unknown origin) assessed as reduction in change in melting temperature at 1:1 to 5:1 ligand to DNA ratio measured after 3 hrs by FRET-based assay relative to control
Type: ADME, nucleic-acid assay
Details: not given

Structure (SMILES)	fold change (FC)
COc1cc2c(cc1OCCCC(=O)Nc1cc(C(=O)Nc3ccc(-c4cc(C(=O)N5CCCCC5)n(C)c4)cc3)n(C)c1)N=C[C@@H]1CCCN1C2=O	3 to 4

Tested on: Acinetobacter baumannii
Assay: Antimicrobial activity against Acinetobacter baumannii ATCC 17978 by microdilution broth method
Type: functional
Details: not given

Structure (SMILES)	MIC [µg/mL]
COc1cc2c(cc1OCCCC(=O)Nc1cc(C(=O)Nc3ccc(-c4cc(C(=O)N5CCCCC5)n(C)c4)cc3)n(C)c1)N=C[C@@H]1CCCN1C2=O	2 (≈ 2.78 µM)

Tested on: not listed separately
Assay: Selectivity ratio of cytotoxicity against human WI38 cells to MIC for multidrug-resistant Pseudomonas aeruginosa NCTC 13437
Type: toxicity, cell-based
Details: not given

Structure (SMILES)	selectivity ratio
COc1cc2c(cc1OCCCC(=O)Nc1cc(C(=O)Nc3ccc(-c4cc(C(=O)N5CCCCC5)n(C)c4)cc3)n(C)c1)N=C[C@@H]1CCCN1C2=O	10

Tested on: not listed separately
Assay: Selectivity ratio of cytotoxicity against human WI38 cells to MIC for multidrug-resistant Acinetobacter baumannii AYE
Type: toxicity, cell-based
Details: not given

Structure (SMILES)	selectivity ratio
COc1cc2c(cc1OCCCC(=O)Nc1cc(C(=O)Nc3ccc(-c4cc(C(=O)N5CCCCC5)n(C)c4)cc3)n(C)c1)N=C[C@@H]1CCCN1C2=O	10

Tested on: not listed separately
Assay: Selectivity ratio of cytotoxicity against human WI38 cells to MIC for vancomycin resistant Enterococcus faecalis NCTC 12201
Type: toxicity, cell-based
Details: not given

Structure (SMILES)	selectivity ratio
COc1cc2c(cc1OCCCC(=O)Nc1cc(C(=O)Nc3ccc(-c4cc(C(=O)N5CCCCC5)n(C)c4)cc3)n(C)c1)N=C[C@@H]1CCCN1C2=O	100

Tested on: not listed separately
Assay: Cytotoxicity against human WI38 cells assessed as cell viability at 20 uM measured after 24 hrs by MTT assay relative to control
Type: cell-based, WI-38
Details: read-out: Activity

Structure (SMILES)	viability at 24 h, 20 µM [%]
COc1cc2c(cc1OCCCC(=O)Nc1cc(C(=O)Nc3ccc(-c4cc(C(=O)N5CCCCC5)n(C)c4)cc3)n(C)c1)N=C[C@@H]1CCCN1C2=O	> 85

Tested on: not listed separately
Assay: Selectivity ratio of cytotoxicity against human WI38 cells to MIC for methicillin resistant Staphylococcus aureus NCTC 13277
Type: toxicity, cell-based
Details: not given

Structure (SMILES)	selectivity ratio
COc1cc2c(cc1OCCCC(=O)Nc1cc(C(=O)Nc3ccc(-c4cc(C(=O)N5CCCCC5)n(C)c4)cc3)n(C)c1)N=C[C@@H]1CCCN1C2=O	100

Tested on: not listed separately
Assay: Selectivity ratio of cytotoxicity against human WI38 cells to MIC for methicillin sensitive Staphylococcus aureus NCTC 6571
Type: toxicity, cell-based
Details: not given

Structure (SMILES)	selectivity ratio
COc1cc2c(cc1OCCCC(=O)Nc1cc(C(=O)Nc3ccc(-c4cc(C(=O)N5CCCCC5)n(C)c4)cc3)n(C)c1)N=C[C@@H]1CCCN1C2=O	100

Tested on: not listed separately
Assay: Selectivity ratio of cytotoxicity against human WI38 cells to MIC for vancomycin sensitive Enterococcus faecalis NCTC 775
Type: toxicity, cell-based
Details: not given

Structure (SMILES)	selectivity ratio
COc1cc2c(cc1OCCCC(=O)Nc1cc(C(=O)Nc3ccc(-c4cc(C(=O)N5CCCCC5)n(C)c4)cc3)n(C)c1)N=C[C@@H]1CCCN1C2=O	100

Tested on: Enterococcus faecalis
Assay: Antibacterial activity against vancomycin resistant Enterococcus faecalis NCTC 12201 by microdilution broth method
Type: functional
Details: not given

Structure (SMILES)	MIC [µg/mL]
COc1cc2c(cc1OCCCC(=O)Nc1cc(C(=O)Nc3ccc(-c4cc(C(=O)N5CCCCC5)n(C)c4)cc3)n(C)c1)N=C[C@@H]1CCCN1C2=O	≤ 0.03

Tested on: DNA
Assay: Stabilization of 5'-FAM-TAT-AGA-TAT-AGA-TAT-TTT-ATA-TCT-ATA-TCT-ATA-3'-TAMRA DNA (unknown origin) assessed as reduction in change in melting temperature at 1:1 to 5:1 ligand to DNA ratio measured after 3 hrs by FRET-based assay relative to control
Type: ADME, nucleic-acid assay
Details: not given

Structure (SMILES)	fold change (FC)
COc1cc2c(cc1OCCCC(=O)Nc1cc(C(=O)Nc3ccc(-c4cc(C(=O)N5CCCCC5)n(C)c4)cc3)n(C)c1)N=C[C@@H]1CCCN1C2=O	3 to 4

Tested on: not listed separately
Assay: Selectivity ratio of cytotoxicity against human WI38 cells to MIC for Klebsiella pneumoniae M6
Type: toxicity, cell-based
Details: not given

Structure (SMILES)	selectivity ratio
COc1cc2c(cc1OCCCC(=O)Nc1cc(C(=O)Nc3ccc(-c4cc(C(=O)N5CCCCC5)n(C)c4)cc3)n(C)c1)N=C[C@@H]1CCCN1C2=O	10

Tested on: not listed separately
Assay: Selectivity ratio of cytotoxicity against human WI38 cells to MIC for Acinetobacter baumannii ATCC 17978
Type: toxicity, cell-based
Details: not given

Structure (SMILES)	selectivity ratio
COc1cc2c(cc1OCCCC(=O)Nc1cc(C(=O)Nc3ccc(-c4cc(C(=O)N5CCCCC5)n(C)c4)cc3)n(C)c1)N=C[C@@H]1CCCN1C2=O	10

Tested on: not listed separately
Assay: Selectivity ratio of cytotoxicity against human WI38 cells to MIC for vancomycin resistant Enterococcus faecium NCTC 12204
Type: toxicity, cell-based
Details: not given

Structure (SMILES)	selectivity ratio
COc1cc2c(cc1OCCCC(=O)Nc1cc(C(=O)Nc3ccc(-c4cc(C(=O)N5CCCCC5)n(C)c4)cc3)n(C)c1)N=C[C@@H]1CCCN1C2=O	100

Tested on: Pseudomonas aeruginosa
Assay: Antimicrobial activity against Pseudomonas aeruginosa PAO1 by microdilution broth method
Type: functional
Details: not given

Structure (SMILES)	MIC [µg/mL]
COc1cc2c(cc1OCCCC(=O)Nc1cc(C(=O)Nc3ccc(-c4cc(C(=O)N5CCCCC5)n(C)c4)cc3)n(C)c1)N=C[C@@H]1CCCN1C2=O	> 128

Tested on: Staphylococcus aureus
Assay: Antibacterial activity against methicillin resistant Staphylococcus aureus NCTC 13277 by microdilution broth method
Type: functional
Details: not given

Structure (SMILES)	MIC [µg/mL]
COc1cc2c(cc1OCCCC(=O)Nc1cc(C(=O)Nc3ccc(-c4cc(C(=O)N5CCCCC5)n(C)c4)cc3)n(C)c1)N=C[C@@H]1CCCN1C2=O	0.125 (≈ 0.174 µM)

Tested on: not listed separately
Assay: Selectivity ratio of cytotoxicity against human WI38 cells to MIC for methicillin resistant Staphylococcus aureus NCTC 13616
Type: toxicity, cell-based
Details: not given

Structure (SMILES)	selectivity ratio
COc1cc2c(cc1OCCCC(=O)Nc1cc(C(=O)Nc3ccc(-c4cc(C(=O)N5CCCCC5)n(C)c4)cc3)n(C)c1)N=C[C@@H]1CCCN1C2=O	100

Tested on: Acinetobacter baumannii
Assay: Antimicrobial activity against multidrug-resistant Acinetobacter baumannii AYE by microdilution broth method
Type: functional
Details: not given

Structure (SMILES)	MIC [µg/mL]
COc1cc2c(cc1OCCCC(=O)Nc1cc(C(=O)Nc3ccc(-c4cc(C(=O)N5CCCCC5)n(C)c4)cc3)n(C)c1)N=C[C@@H]1CCCN1C2=O	2 (≈ 2.78 µM)

Tested on: Klebsiella pneumoniae
Assay: Antimicrobial activity against multidrug-resistant Klebsiella pneumoniae NCTC 13368 by microdilution broth method
Type: functional
Details: not given

Structure (SMILES)	MIC [µg/mL]
COc1cc2c(cc1OCCCC(=O)Nc1cc(C(=O)Nc3ccc(-c4cc(C(=O)N5CCCCC5)n(C)c4)cc3)n(C)c1)N=C[C@@H]1CCCN1C2=O	> 128

Tested on: Pseudomonas aeruginosa
Assay: Antimicrobial activity against multidrug-resistant Pseudomonas aeruginosa NCTC 13437 by microdilution broth method
Type: functional
Details: not given

Structure (SMILES)	MIC [µg/mL]
COc1cc2c(cc1OCCCC(=O)Nc1cc(C(=O)Nc3ccc(-c4cc(C(=O)N5CCCCC5)n(C)c4)cc3)n(C)c1)N=C[C@@H]1CCCN1C2=O	> 128

Tested on: Staphylococcus aureus
Assay: Antibacterial activity against methicillin sensitive Staphylococcus aureus NCTC 6571 by microdilution broth method
Type: functional
Details: not given

Structure (SMILES)	MIC [µg/mL]
COc1cc2c(cc1OCCCC(=O)Nc1cc(C(=O)Nc3ccc(-c4cc(C(=O)N5CCCCC5)n(C)c4)cc3)n(C)c1)N=C[C@@H]1CCCN1C2=O	≤ 0.03

Tested on: not listed separately
Assay: Selectivity ratio of cytotoxicity against human WI38 cells to MIC for multidrug-resistant Klebsiella pneumoniae NCTC 13368
Type: toxicity, cell-based
Details: not given

Structure (SMILES)	selectivity ratio
COc1cc2c(cc1OCCCC(=O)Nc1cc(C(=O)Nc3ccc(-c4cc(C(=O)N5CCCCC5)n(C)c4)cc3)n(C)c1)N=C[C@@H]1CCCN1C2=O	10
